Data: patent US9475766B2, “Substituted aromatic sulfur compounds and methods of their use” (Cephalon, Inc., priority 2011, dated 2016)

Key:
Assay type in all cases: cell-based
[1] = test system: SU86 pancreatic cancer cell line (Su.86.86); assay: Cell survival and adhesion assay (luciferase), SU86; conditions: 5 hours, SU86 cells overlayed onto human mesothelial cell monolayers, read-out: relative reduction in Luciferase activity, SU86 10 μM
Procedure: (§1) SU86 is a pancreatic cancer cell line. HT29 is a colon cancer cell line. BxPC3 is a pancreatic cell line. A2780 is an ovarian cancer cell line.
(§2) BxPc-3 and Su.86.86 pancreatic and HT-29 colon and A2780 ovarian cancer cell lines were purchased from ATCC and cultured in DMEM supplemented with 10% fetal bovine serum, glutamine, penicillin, and streptomycin. All cells were cultured at 37° C. in a humidified incubator in a 5% CO2 atmosphere. The cancer cell lines were transduced with a retrovirus containing pLuc-puro, a constitutive luciferase reporter and selected in […] media. Transient transfection of a full-length human c-FLIP construct in the vector pcDNA3 was performed as previously described. Scaife et al. Cancer Research 2002, 62: 6870-78.
(§3) Pancreatic cancer cell cultures (BxPc-3 and Su.86.86) and colon cancer (HT-29) and ovarian cancer (A2780) cells that were stably transfected with a firefly luciferase construct were transiently suspended with trypsin-PBS. 10^5 cells were overlayed onto confluent monolayers of human mesothelial cells in 96-well plates while simultaneously adding various concentrations of compounds of the invention or DMSO for 5 hours. The non-adherent cells were carefully washed away from the wells twice with 100 μl/well of blocking buffer (1% BSA in PBS) and twice again with ice-cold PBS. Adherent and surviving cells were detected by luciferase activity in a luminometer as follows. The cells were lysed in 0.1% TritonX-100, 25 mM Gly-Gly (7.8), MgSO4, 4 mM EGTA, 1 mM DTT. The total protein concentration was normalized with lysis buffer. 50 μl of cell lysate was added per well of a 96-well microtiter plate. 50 μl of luciferin substrate (Promega) was added per well and then the light output determined in a luminometer.

[2] = test system: HT29 colon cancer cell line; assay: Cell survival and adhesion assay (luciferase), HT29; conditions: HT-29, 5 hours, HT29 cells overlayed onto human mesothelial cell monolayers, read-out: relative reduction in Luciferase activity, HT29 10 μM
Procedure: as §1, §2, §3

[3] = test system: BxPC3 pancreatic cell line; assay: Cell survival and adhesion assay (luciferase), BxPC3; conditions: BXPC-3, 5 hours, BxPC3 cells overlayed onto human mesothelial cell monolayers, read-out: relative reduction in Luciferase activity, BxPC3 10 μM
Procedure: as §1, §2, §3

[4] = test system: A2780 ovarian cancer cell line; assay: Cell survival and adhesion assay (luciferase), A2780; conditions: 5 hours, A2780 cells overlayed onto human mesothelial cell monolayers, read-out: relative reduction in Luciferase activity, A2780 10 μM
Procedure: as §1, §2, §3

SMILES	inhibition at 10 µM [1] [%]	inhibition at 10 µM [2] [%]	inhibition at 10 µM [3] [%]	inhibition at 10 µM [4] [%]
CC(C)(C(=O)NCCO)c1ccc(S(=O)(=O)/C=C/C#N)cc1 [Example 4, 2-[4-((E)-2-Cyano-ethenesulfonyl)-phenyl]-N-(2-hydroxy-ethyl)-isobutyramide]	< 10	10 to 50	< 10	< 10
CC(C)(C(=O)Nc1ccccc1)c1ccc(S(=O)(=O)/C=C/C#N)cc1 [Example 5, 2-[4-((E)-2-Cyano-ethenesulfonyl)-phenyl]-N-phenyl-isobutyramide]	10 to 50	< 10	50 to 85	50 to 85
CC(C)(C(=O)NCc1ccccc1)c1ccc(S(=O)(=O)/C=C/C#N)cc1 [Example 6, N-Benzyl-2-[4-((E)-2-cyano-ethenesulfonyl)-phenyl]-isobutyramide]	50 to 85	< 10	50 to 85	> 85
CC(C)(C(=O)NCc1ccccn1)c1ccc(S(=O)(=O)/C=C/C#N)cc1 [Example 7, 2-[4-((E)-2-Cyano-ethenesulfonyl)-phenyl]-N-pyridin-2-ylmethyl-isobutyramide]	10 to 50	< 10	10 to 50	10 to 50
CC(C)CNC(=O)C(C)(C)c1ccc(S(=O)(=O)/C=C/C#N)cc1 [Example 8, 2-[4-((E)-2-Cyano-ethenesulfonyl)-phenyl]-N-isobutyl-isobutyramide]	50 to 85	10 to 50	50 to 85	50 to 85
CN1CCN(C(=O)C(C)(C)c2ccc(S(=O)(=O)/C=C/C#N)cc2)CC1 [Example 9, (E)-3-{4-[1,1-Dimethyl-2-(4-methyl-piperazin-1-yl)-2-oxo-ethyl]-benzenesulfonyl}-acrylonitrile]	< 10	< 10	< 10	< 10
CC(C)(C(=O)NCC1CC1)c1ccc(S(=O)(=O)/C=C/C#N)cc1 [Example 10]	10 to 50	< 10	10 to 50	50 to 85
CC(C)(C(=O)NCC(F)F)c1ccc(S(=O)(=O)/C=C/C#N)cc1 [Example 11, 2-[4-((E)-2-Cyano-ethenesulfonyl)-phenyl]-N-(2,2-difluoro-ethyl)-isobutyramide]	10 to 50	< 10	10 to 50	10 to 50
CC(C)(C(=O)NC1CCOCC1)c1ccc(S(=O)(=O)/C=C/C#N)cc1 [Example 13, 2-[4-((E)-2-Cyano-ethenesulfonyl)-phenyl]-N-(tetrahydro-pyran-4-yl)-isobutyramide]	< 10	10 to 50	< 10	< 10
CC(C)(C(=O)NCc1ccc(Cl)cc1)c1ccc(S(=O)(=O)/C=C/C#N)cc1 [Example 14, N-(4-Chloro-benzyl)-2-[4-((E)-2-cyano-ethenesulfonyl)-phenyl]-isobutyramide]	50 to 85	10 to 50	50 to 85	> 85
CC(C)(C(=O)NCc1cccs1)c1ccc(S(=O)(=O)/C=C/C#N)cc1 [Example 15, 2-[4-((E)-2-Cyano-ethenesulfonyl)-phenyl]-N-thiophen-2-ylmethyl-isobutyramide]	50 to 85	< 10	50 to 85	> 85
CC(C)(C)c1cccc(S(=O)(=O)/C=C/C#N)c1 [Example 54, (E)-3-(3-tert-Butyl-benzenesulfonyl)-acrylonitrile]	> 85	< 10	> 85	> 85
CC(C)(C)c1ccc(S/C=C/C#N)cc1 [Example 60, (E)-3-(4-tert-Butyl-phenylsulfanyl)-acrylonitrile]	< 10	< 10	< 10	< 10
CC(C)(C)c1cc(S(=O)(=O)/C=C/C#N)ccc1OCC(=O)O [Example 61, [2-tert-Butyl-4-((E)-2-cyano-ethenesulfonyl)-phenoxy]-acetic acid]	< 10	< 10	10 to 50	< 10
N#C/C=C/S(=O)(=O)c1ccc(C2(C(=O)O)CC2)cc1 [Example 62, 1-[4-((E)-2-Cyano-ethenesulfonyl)-phenyl]-cyclopropanecarboxylic acid]	10 to 50	< 10	< 10	10 to 50
CC(C)(C)c1cc(S(=O)(=O)/C=C/C#N)ccc1OCC(=O)NC1CCCCC1 [Example 63, 2-[2-tert-Butyl-4-((E)-2-cyano-ethenesulfonyl)-phenoxy]-N-cyclohexyl-acetamide]	50 to 85	> 85	> 85	> 85
CC(C)(C)c1cc(S(=O)(=O)/C=C/C#N)ccc1OCC(=O)NCc1ccc(F)cc1 [Example 64, 2-[2-tert-Butyl-4-((E)-2-cyano-ethenesulfonyl)-phenoxy]-N-(4-fluoro-benzyl)-acetamide]	50 to 85	> 85	> 85	> 85
COc1cccc(NC(=O)COc2ccc(S(=O)(=O)/C=C/C#N)cc2C(C)(C)C)c1 [Example 65, 2-[2-tert-Butyl-4-((E)-2-cyano-ethenesulfonyl)-phenoxy]-N-(3-methoxy-phenyl)-acetamide]	50 to 85	> 85	50 to 85	> 85
Cc1ccc2oc(C(C)(C)c3cccc(S(=O)(=O)/C=C/C#N)c3)nc2c1 [Example 66, (E)-3-{3-[1-Methyl-1-(5-methyl-benzoxazol-2-yl)-ethyl]-benzenesulfonyl}-acrylonitrile; compound with trifluoro-acetic acid]	50 to 85	> 85	50 to 85	> 85
Cc1ccc(O)c(NC(=O)C(C)(C)c2ccc(S(=O)(=O)/C=C/C#N)cc2)c1 [Example 69, 2-[4-((E)-2-Cyano-ethenesulfonyl)-phenyl]-N-(2-hydroxy-5-methyl-phenyl)-isobutyramide]	10 to 50	50 to 85	10 to 50	50 to 85
CC(C)(C)c1ccc2cc(S(=O)(=O)/C=C/C#N)ccc2n1 [Example 70, (E)-3-(2-tert-Butyl-quinoline-6-sulfonyl)-acrylonitrile]	50 to 85	> 85	50 to 85	> 85
CC(C)(C(=O)NCC#Cc1ccccc1)c1ccc(S(=O)(=O)/C=C/C#N)cc1 [Example 71, 2-[4-((E)-2-Cyano-ethenesulfonyl)-phenyl]-N-(3-phenyl-prop-2-ynyl)-isobutyramide]	50 to 85	> 85	> 85	> 85
CC(C)(c1ccc(S(=O)(=O)/C=C/C#N)cc1)c1nnc(-c2ccccc2)o1 [Example 72, (E)-3-{4-[1-Methyl-1-(5-phenyl-[1,3,4]oxadiazol-2-yl)-ethyl]-benzenesulfonyl}-acrylonitrile]	50 to 85	> 85	50 to 85	> 85
CC(C)(C(=O)Nc1ccccc1O)c1ccc(S(=O)(=O)/C=C/C#N)cc1 [Example 73, 2-[4-((E)-2-Cyano-ethenesulfonyl)-phenyl]-N-(2-hydroxy-phenyl)-isobutyramide]	10 to 50	> 85	50 to 85	50 to 85
CC(C)(c1ccc(S(=O)(=O)/C=C/C#N)cc1)c1nc2ccccc2o1 [Example 78, (E)-3-[4-(1-Benzoxazol-2-yl-1-methyl-ethyl)-benzenesulfonyl]-acrylonitrile]	50 to 85	> 85	50 to 85	> 85
C#CCCNC(=O)C(C)(C)c1ccc(S(=O)(=O)/C=C/C#N)cc1 [Example 80, N-But-3-ynyl-2-[4-((E)-2-cyano-ethenesulfonyl)-phenyl]-isobutyramide]	10 to 50	> 85	50 to 85	50 to 85
